Reference: patent US8435978B2, “Substituted sulfonamide compounds” (Gruenenthal GmbH, priority 2006, dated 2013)
Where a name gives a salt, the structure may show the parent alone.

Assays:
[1] = molecular target: T1, human B1R receptor (Homo sapiens, UniProt P46663); assay: Functional study on the bradykinin receptor 1 (B1R), FLIPR Ca2+ assay, hB1R cells; assay type: cell-based; details: CHO-K1, test substance 10 μM, agonist Lys-Des-Arg9-bradykinin 0.5 nM, % inhibition compared with the maximum achievable inhibition, read-out: B1R Antagonism, human [10 μM] % Inhibition
T1 construct: host or cells: CHO K1 cells (Chinese hamster ovary), stably transfected
T1 sequence (P46663 1-353): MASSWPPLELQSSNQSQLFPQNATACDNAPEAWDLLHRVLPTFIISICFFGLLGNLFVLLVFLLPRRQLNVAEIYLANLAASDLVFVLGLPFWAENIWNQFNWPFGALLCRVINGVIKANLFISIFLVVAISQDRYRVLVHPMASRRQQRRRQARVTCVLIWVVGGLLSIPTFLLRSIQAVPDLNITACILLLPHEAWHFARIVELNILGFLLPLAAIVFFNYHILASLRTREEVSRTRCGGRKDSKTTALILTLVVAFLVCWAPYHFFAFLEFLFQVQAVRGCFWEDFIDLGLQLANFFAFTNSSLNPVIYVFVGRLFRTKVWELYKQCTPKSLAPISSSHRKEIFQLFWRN
In short: (§1)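 CHO K1 cells stably expressing human or rat B1R, Fluo-4-loaded; test compound 10 μM added first (activation % vs agonist), then after 10 min 0.5 nM Lys-Des-Arg9-bradykinin (human) or 100 nM Des-Arg9-bradykinin (rat). Ca2+ peak fluorescence by FLIPR; % inhibition relative to maximum achievable inhibition.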

[2] = molecular target: T2, B1R receptor of the rat (Rattus norvegicus, UniProt P97583); assay: Functional study on the bradykinin receptor 1 (B1R), FLIPR Ca2+ assay, rB1R cells; assay type: cell-based; details: CHO-K1, test substance 10 μM, agonist Des-Arg9-bradykinin 100 nM, % inhibition compared with the maximum achievable inhibition, read-out: B1R Antagonism, rat [10 μM] % Inhibition
T2 construct: host or cells: CHO K1 cells (Chinese hamster ovary), stably transfected
T2 sequence (P97583 1-337): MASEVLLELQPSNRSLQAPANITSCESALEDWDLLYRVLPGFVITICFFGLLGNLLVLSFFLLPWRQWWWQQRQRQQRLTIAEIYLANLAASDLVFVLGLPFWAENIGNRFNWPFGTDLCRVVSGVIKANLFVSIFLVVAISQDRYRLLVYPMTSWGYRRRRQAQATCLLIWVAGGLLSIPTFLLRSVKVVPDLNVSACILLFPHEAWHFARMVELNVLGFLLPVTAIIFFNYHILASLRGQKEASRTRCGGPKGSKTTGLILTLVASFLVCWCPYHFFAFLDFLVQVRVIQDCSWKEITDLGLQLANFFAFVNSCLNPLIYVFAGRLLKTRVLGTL
In short: as §1

| SMILES | inhibition at 10 µM [1] | inhibition at 10 µM [2] |
| --- | --- | --- |
| CC(C)N(CCN1CCN(C(=O)COCC2CCCN2S(=O)(=O)c2c(Cl)cc(Cl)cc2Cl)CC1)C(C)C (stereo not drawn) [Example 333, 1-(4-(2-(diisopropylamino)ethyl)piperazin-1-yl)-2-((1-(2,4,6-trichlorophenylsulfonyl)pyrrolidin-2-yl)methoxy)ethanone] | 107% | 101% |
| COc1cc(C)c(S(=O)(=O)N2Cc3ccccc3CC2COCC(=O)N2CCCCC2Cc2cccc(C)n2)c(C)c1C (stereo not drawn) [Example 277, 2-((2-(4-methoxy-2,3,6-trimethylphenylsulfonyl)-1,2,3,4-tetrahydroisoquinolin-3-yl)methoxy)-1-(2-((6-methylpyridin-2-yl)methyl)piperidin-1-yl)ethanone] | 85.5% | 81.6% |
| CN1CCN(Cc2ccc(CNC(=O)COCC3CCCCN3S(=O)(=O)c3c(Cl)cc(Cl)cc3Cl)cc2)CC1 (stereo not drawn) [Example 15, N-[4-(4-methyl-piperazin-1-ylmethyl)-benzyl]-2-[1-(2,4,6-trichloro-phenylsulfonyl)-piperidin-2-ylmethoxy]-acetamide] | 96% | 92.5% |
| COc1cc(C)c(S(=O)(=O)N2CCCC2COCC(=O)NCC(c2ccc(C(F)(F)F)cc2)N2CCCC2)c(C)c1 (stereo not drawn) [Example 496, 2-((1-(4-methoxy-2,6-dimethylphenylsulfonyl)pyrrolidin-2-yl)methoxy)-N-(2-(pyrrolidin-1-yl)-2-(4-(trifluoromethyl)phenyl)ethyl)acetamide] | 68.2% | 103% |
| COc1cc(C)c(S(=O)(=O)N2CCCCC2COCC(=O)N2CCN(Cc3nc4ccccc4[nH]3)CC2)c(C)c1 (stereo not drawn) [Example 117, 1-(4-((1H-benzo[d]imidazol-2-yl)methyl)piperazin-1-yl)-2-((1-(4-methoxy-2,6-dimethylphenylsulfonyl)piperidin-2-yl)methoxy)ethanone] | 101% | 101% |
| COc1cc(C)c(S(=O)(=O)N2CCCCC2COCC(=O)N2CC[C@@H](N(C)C)C2)c(C)c1 (stereo partly drawn) [Example 363, 1-((R)-3-(dimethylamino)pyrrolidin-1-yl)-2-((1-(4-methoxy-2,6-dimethylphenylsulfonyl)piperidin-2-yl)methoxy)ethanone] | 90.7% | 101% |
| COc1cc(C)c(S(=O)(=O)N2CCCCC2COCC(=O)N2CCC(c3cccnc3)C2)c(C)c1 (stereo not drawn) [Example 237, 2-((1-(4-methoxy-2,6-dimethylphenylsulfonyl)piperidin-2-yl)methoxy)-1-(3-(pyridin-3-yl)pyrrolidin-1-yl)ethanone] | 99.7% | 99.5% |
| O=C(COCC1CCCCN1S(=O)(=O)c1c(Cl)cc(Cl)cc1Cl)NCc1ccc(CN2CCCCC2)cc1 (stereo not drawn) [Example 4, N-(4-piperidin-1-ylmethyl-benzyl)-2-[1-(2,4,6-trichloro-phenylsulfonyl)-piperidin-2-ylmethoxy]-acetamide] | 104% | 106% |
| Cc1cc(C)c(S(=O)(=O)N2CCCCC2COCC(=O)N2CCC(N3CCN(C)CC3)CC2)c(C)c1 (stereo not drawn) [Example 231, 2-((1-(mesitylsulfonyl)piperidin-2-yl)methoxy)-1-(4-(4-methylpiperazin-1-yl)piperidin-1-yl)ethanone] | 102% | 83.3% |
| Cc1cc(C)c(S(=O)(=O)N2CCCCC2COCC(=O)N2CCCCC2Cc2ncccc2C)c(C)c1 (stereo not drawn) [Example 229, 2-((1-(mesitylsulfonyl)piperidin-2-yl)methoxy)-1-(2-((3-methylpyridin-2-yl)methyl)piperidin-1-yl)ethanone] | 101% | 101% |
| COc1cc(C)c(S(=O)(=O)N2CCCCC2COCC(=O)N2CCC(Oc3cccnc3)CC2)c(C)c1 (stereo not drawn) [Example 165, 2-((1-(4-methoxy-2,6-dimethylphenylsulfonyl)piperidin-2-yl)methoxy)-1-(4-(pyridin-3-yloxy)piperidin-1-yl)ethanone] | 97.1% | 96.8% |
| COc1cc(C)c(S(=O)(=O)N2CCCC2COCC(=O)N2CCC(N3CCOCC3)CC2)c(C)c1 (stereo not drawn) [Example 519, 2-((1-(4-methoxy-2,6-dimethylphenylsulfonyl)pyrrolidin-2-yl)methoxy)-1-(4-morpholinopiperidin-1-yl)ethanone] | 81.9% | 103% |
| COc1cccc(N2CCN(C(=O)COCC3CCCN3S(=O)(=O)c3c(C)cc(OC)cc3C)CC2)c1 (stereo not drawn) [Example 306, 2-((1-(4-methoxy-2,6-dimethylphenylsulfonyl)pyrrolidin-2-yl)methoxy)-1-(4-(3-methoxyphenyl)piperazin-1-yl)ethanone] | 104% | 99.2% |
| Cc1cc(C)c(S(=O)(=O)N2CCCCC2COCC(=O)N2CCCN(Cc3ccccc3)CC2)c(C)c1 (stereo not drawn) [Example 31, 1-(4-benzyl-[1,4]diazepan-1-yl)-2-[1-(2,4,6-trimethyl-phenylsulfonyl)-piperidin-2-ylmethoxy]-ethanone] | 83.8% | 94.7% |
| COc1cc(C)c(S(=O)(=O)N2CCCCC2COCC(=O)NCc2ccc(Oc3cnccn3)cc2)c(C)c1 (stereo not drawn) [Example 196, 2-((1-(4-methoxy-2,6-dimethylphenylsulfonyl)piperidin-2-yl)methoxy)-N-(4-(pyrazin-2-yloxy)benzyl)acetamide] | 100% | 98.8% |
| COc1cc(C)c(S(=O)(=O)N2CCCCC2COCC(=O)NCCCCCN(C)C)c(C)c1 (stereo not drawn) [Example 250, N-(5-(dimethylamino)pentyl)-2-((1-(4-methoxy-2,6-dimethylphenylsulfonyl)piperidin-2-yl)methoxy)acetamide] | 96.8% | 90.5% |
| COc1cc(C)c(S(=O)(=O)N2CCCCC2COCC(=O)N2CCN(CCN(C(C)C)C(C)C)CC2)c(C)c1 (stereo not drawn) [Example 341, 1-(4-(2-(diisopropylamino)ethyl)piperazin-1-yl)-2-((1-(4-methoxy-2,6-dimethylphenylsulfonyl)piperidin-2-yl)methoxy)ethanone] | 105% | 102% |
| COc1cc(C)c(S(=O)(=O)N2CCCCC2COCC(=O)Nc2ccc(Cn3ccnc3)cc2)c(C)c1 (stereo not drawn) [Example 420, N-(4-((1H-imidazol-1-yl)methyl)phenyl)-2-((1-(4-methoxy-2,6-dimethylphenylsulfonyl)piperidin-2-yl)methoxy)acetamide] | 100% | 92% |
| O=C(COCC1CCCCN1S(=O)(=O)c1c(Cl)cccc1Cl)N1CCN(c2nc3ccc(Cl)cc3s2)CC1 (stereo not drawn) [Example 554, 1-(4-(6-chlorobenzo[d]thiazol-2-yl)piperazin-1-yl)-2-((1-(2,6-dichlorophenylsulfonyl)piperidin-2-yl)methoxy)ethanone] | 25.2% | 102% |
| Cc1cc(C)c(S(=O)(=O)N2CCCCC2COCC(=O)N2CCN(C3CCN(C)CC3)CC2)c(C)c1 (stereo not drawn) [Example 107, 2-((1-(mesitylsulfonyl)piperidin-2-yl)methoxy)-1-(4-(1-methylpiperidin-4-yl)piperazin-1-yl)ethanone] | 102% | 102% |
| COc1cc(C)c(S(=O)(=O)N2CCCCC2COCC(=O)NCC(c2ccccc2Cl)N2CCOCC2)c(C)c1 (stereo not drawn) [Example 251, N-(2-(2-chlorophenyl)-2-morpholinoethyl)-2-((1-(4-methoxy-2,6-dimethylphenylsulfonyl)piperidin-2-yl)methoxy)acetamide] | 45.8% | 98.5% |
| COc1cc(C)c(S(=O)(=O)N2CCCC2COCC(=O)N2CCN(Cc3cccc(C#N)c3)CC2)c(C)c1 (stereo not drawn) [Example 93, 3-((4-(2-((1-(4-methoxy-2,6-dimethylphenylsulfonyl)pyrrolidin-2-yl)methoxy)acetyl)-piperazin-1-yl)methyl)benzonitrile hydrochloride] | 106% | 99.1% |
| Cc1cc(C)c(S(=O)(=O)N2CCCCC2COCC(=O)N2CCN(c3nc(Cc4ccccc4)cs3)CC2)c(C)c1 (stereo not drawn) [Example 234, 1-(4-(4-benzylthiazol-2-yl)piperazin-1-yl)-2-((1-(mesitylsulfonyl)piperidin-2-yl)methoxy)ethanone] | 52% | 103% |
| Cc1cc(C)nc(CC2CCCCN2C(=O)COCC2Cc3ccccc3CN2S(=O)(=O)c2c(C)cc(C)cc2C)c1 (stereo not drawn) [Example 223, 1-(2-((4,6-dimethylpyridin-2-yl)methyl)piperidin-1-yl)-2-((2-(mesitylsulfonyl)-1,2,3,4-tetrahydroisoquinolin-3-yl)methoxy)ethanone] | 26.2% | 86.4% |
